# What was measured:
# in vitro = details: rat, plasma
# [1] = rat
# [2] = test system: panel of 81 protein kinases and Class III PI3K family hVps34; assay: Kinase screening services (Dundee University and Invitrogen); format: biochemical; details: 81 protein kinases and hVps34
# [3] = test system: human cancer cell lines with PI3K pathway aberrations; assay: Mouse xenograft models
# [4] = test system: subcutaneous MDA-468 tumors; assay: Xenograft efficacy; format: in vivo, mouse; details: 5T4-ADC 2 mg/kg
# Method: Female athymic nu/nu mice (18-23 g) were obtained from Charles River Laboratories, Wilmington, Mass. […] ADCs were administered based on mAb protein content at 2 or 3 mg Ab/kg on a Q4D×4 (every 4 day) schedule, with 8 to 10 mice per group. […] All procedures using mice were approved by the Pfizer Institutional Animal Care and Use Committee according to established guidelines. Time To Endpoint (time to no tumor or rate of tumor tripling) were used for comparison of drug-treated groups.
# [5] = test system: lung, breast cancer and ovarian cancer cell lines; assay: In vitro cytotoxic activity and combinations, cell line panel; format: cell-based, human; details: agent alone
# Method: Cells were plated in a 96-well clear-bottomed plates (Corning) and treated with varying concentrations of compounds for 4 days. […] by using a CellTiter Glo luminescent cell viability assay kit (Promega) and measured using a Victor X3 plate reader (Perkin Elmer). The data were normalised to the control group (empty vector or DMSO). The IC50 values were defined as the concentration that causes 50% growth inhibition. IC50 values were calculated using a logistic nonlinear regression, model no. 203 with XL fit v4.2 (IDBS, Guldford, Surry, UK). All experimental points were setup in three replicate wells and independently performed in duplicate.
# The effects of drug combinations were evaluated using Chou-Talalay median effect analysis (28). Cells were treated with each drug alone and in combination in two independent 96-well plates in a diagonal matrix format, and proliferation was measured by using a CellTiter Glo kit (Promega). Results were expressed as surviving fractions (fraction affected, Fa), based on the measured luminescence counts of treated samples, compared to that of untreated controls. […]
# In vitro cytotoxic activity was evaluated for the 5T4-ADC or the auristatin payloads in combination with various standard of care (SOC) agents or selected signaling inhibitors in lung, breast cancer and ovarian cancer cell lines. […]
# [6] = test system: more than 50 diverse human tumor cell lines; assay: Anti-proliferative effect in tumor cell lines; format: cell-based
# MDA-MB-361 = assay: Apoptosis induction; format: cell-based; details: at 4 h, cleaved PARP
smiles,measurement,setting,value
"COc1ccc(-c2cc3c(C)nc(N)nc3n([C@H]3CC[C@H](OCCO)CC3)c2=O)cn1 [Compound 1A, 2-amino-8-[trans-4-(2-hydroxyethoxy)cyclohexyl]-6-(6-methoxypyridin-3-yl)-4-methylpyrido[2,3-d]pyrimidin-7(8H)-one]",fraction unbound,in vitro,0.202
same,clearance,[1],low clearance
same,concentration up to which no significant inhibitory activity was observed for any of the evaluated kinases,[2],> 10 µM
same,in vivo activity,[3],has in vivo activity
CC(=O)O[C@H]1C(=O)[C@@]2(C)[C@H]([C@H](OC(=O)c3ccccc3)[C@]3(O)C[C@H](OC(=O)[C@H](O)[C@@H](NC(=O)c4ccccc4)c4ccccc4)C(C)=C1C3(C)C)[C@]1(OC(C)=O)CO[C@@H]1C[C@@H]2O [paclitaxel],regressions / CRs by day 53,[4]; paclitaxel 22.5 mg/kg,6/10
same,antitumor activity of monotherapy,[4]; paclitaxel 10 mg/kg,no pronounced effect on tumor growth
O=C(NOC[C@H](O)CO)c1ccc(F)c(F)c1Nc1ccc(I)cc1F [PD-901],sensitivity of most of the cell lines to the single agent,[5],relatively insensitive
C#Cc1cccc(Nc2ncnc3cc(OCCOC)c(OCCOC)cc23)c1 [Erlotinib],sensitivity of most of the cell lines to the single agent,[5],relatively insensitive
"CN(C)C1CCN(C(=O)c2ccc(NC(=O)Nc3ccc(-c4nc(N5CCOCC5)nc(N5CCOCC5)n4)cc3)cc2)CC1 [PF-384, 1-(4-{[4-(dimethylamino)piperidin-1-yl]carbonyl}phenyl)-3-[4-(4,6-dimorpholin-4-yl-1,3,5-triazin-2-yl)phenyl]urea]",IC50,[6],< 100 nM
same,concentration at which apoptosis was induced,MDA-MB-361,30 nM
